Results taken from PubChem BioAssay (NCI).
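In this assay, cells in 96-well plates receive the compound at five concentrations for 48 hours. Endpoints are linearly interpolated between the surrounding concentrations. Here, GI50 denotes the concentration required for 50% inhibition of growth. TGI is the concentration that stops growth completely.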

Assays:
Test in all cases: DTP human tumour cell line panel, 48 h
HCT-15 colon = test system: HCT-15 colon
HL-60(TB) leukemia = test system: HL-60(TB) leukemia
KM12 colon = test system: KM12 colon
LOX IMVI melanoma = test system: LOX IMVI melanoma
MALME-3M melanoma = test system: MALME-3M melanoma
NCI-H226 lung = test system: NCI-H226 lung
NCI-H522 lung = test system: NCI-H522 lung
RPMI-8226 leukemia = test system: RPMI-8226 leukemia
SNB-19 CNS = test system: SNB-19 CNS
TK-10 renal = test system: TK-10 renal

`Cc1cc(=O)n2[nH]c(-c3ccc(C(C)(C)C)cc3)cc2n1` was tested, and the GI50 (HCT-15 colon) was 5.79 µM, the TGI (HCT-15 colon) was > 100 µM and the GI50 (HL-60(TB) leukemia) was 6.9 µM. The TGI (HL-60(TB) leukemia) was 93.8 µM, the GI50 (KM12 colon) was 7.04 µM and the TGI (KM12 colon) was 53.9 µM. The GI50 (LOX IMVI melanoma) was 7.39 µM, the TGI (LOX IMVI melanoma) was 61.6 µM and the GI50 (MALME-3M melanoma) was 2.76 µM. The TGI (MALME-3M melanoma) was 29 µM, the GI50 (NCI-H226 lung) was 5.28 µM and the TGI (NCI-H226 lung) was > 100 µM. For the same compound, the GI50 (NCI-H522 lung) was 3.42 µM, the TGI (NCI-H522 lung) was 43 µM and the GI50 (RPMI-8226 leukemia) was 3.89 µM. The TGI (RPMI-8226 leukemia) was 54.8 µM, the GI50 (SNB-19 CNS) was 10.1 µM and the TGI (SNB-19 CNS) was > 100 µM. It also gave a GI50 (TK-10 renal) of 3.5 µM and a TGI (TK-10 renal) of 61.8 µM.

Work on `O=C(Nc1ccc(F)cc1F)c1cc(I)ccc1O` yielded a GI50 (HCT-15 colon) of 3.27 µM, a TGI (HCT-15 colon) of 45.5 µM and a GI50 (HL-60(TB) leukemia) of 3.08 µM. For the same compound, the TGI (HL-60(TB) leukemia) was 9.13 µM, the GI50 (KM12 colon) was 2.93 µM and the TGI (KM12 colon) was 9.53 µM. It also gave a GI50 (LOX IMVI melanoma) of 3.31 µM, a TGI (LOX IMVI melanoma) of 17.6 µM and a GI50 (MALME-3M melanoma) of 2.08 µM. It also gave a TGI (MALME-3M melanoma) of 6.45 µM, a GI50 (NCI-H226 lung) of 2.46 µM and a TGI (NCI-H226 lung) of 15.8 µM. For the same compound, the GI50 (NCI-H522 lung) was 2.73 µM, the TGI (NCI-H522 lung) was 14.1 µM and the GI50 (RPMI-8226 leukemia) was 2.5 µM. The TGI (RPMI-8226 leukemia) was 8.96 µM, the GI50 (SNB-19 CNS) was 3.11 µM and the TGI (SNB-19 CNS) was > 100 µM. The GI50 (TK-10 renal) was 4.73 µM and the TGI (TK-10 renal) was 31.1 µM.

For `COC(=O)Nc1nc2ccc(S(=O)c3ccccc3)cc2[nH]1` (stereo not drawn), the GI50 (HCT-15 colon) was 4.58 µM, the TGI (HCT-15 colon) was > 100 µM and the GI50 (HL-60(TB) leukemia) was 2.44 µM. The TGI (HL-60(TB) leukemia) was 6.5 µM, the GI50 (KM12 colon) was 4.48 µM and the TGI (KM12 colon) was > 100 µM. For the same compound, the GI50 (LOX IMVI melanoma) was 5.96 µM, the TGI (LOX IMVI melanoma) was > 100 µM and the GI50 (MALME-3M melanoma) was 5.21 µM. For the same compound, the TGI (MALME-3M melanoma) was > 100 µM, the GI50 (NCI-H226 lung) was 4.06 µM and the TGI (NCI-H226 lung) was > 100 µM. For the same compound, the GI50 (NCI-H522 lung) was 2.79 µM, the TGI (NCI-H522 lung) was 40.2 µM and the GI50 (RPMI-8226 leukemia) was 5.11 µM. For the same compound, the TGI (RPMI-8226 leukemia) was > 100 µM, the GI50 (SNB-19 CNS) was 6.12 µM and the TGI (SNB-19 CNS) was > 100 µM. The GI50 (TK-10 renal) was 12.4 µM and the TGI (TK-10 renal) was > 100 µM.

With `Fc1ccc(Nc2ncnc3ccc(-c4cnc5[nH]ccc5c4)cc23)cc1Cl` the GI50 (HCT-15 colon) was 3.24 µM, the TGI (HCT-15 colon) was > 76.5 µM and the GI50 (HL-60(TB) leukemia) was 7.76 µM. The TGI (HL-60(TB) leukemia) was 40.1 µM, the GI50 (KM12 colon) was 4.71 µM and the TGI (KM12 colon) was > 100 µM. For the same compound, the GI50 (LOX IMVI melanoma) was 3.95 µM, the TGI (LOX IMVI melanoma) was > 29.4 µM and the GI50 (MALME-3M melanoma) was 2.05 µM. The TGI (MALME-3M melanoma) was 7.84 µM, the GI50 (NCI-H226 lung) was 1.99 µM and the TGI (NCI-H226 lung) was 4.97 µM. It also gave a GI50 (NCI-H522 lung) of 12.6 µM, a TGI (NCI-H522 lung) of 69.1 µM and a GI50 (RPMI-8226 leukemia) of 3.09 µM. For the same compound, the TGI (RPMI-8226 leukemia) was > 100 µM, the GI50 (SNB-19 CNS) was 1.94 µM and the TGI (SNB-19 CNS) was 5.94 µM. The GI50 (TK-10 renal) was 0.292 µM and the TGI (TK-10 renal) was 13.8 µM.

In the case of `CC1(C)COC(c2ccc(C(F)(F)F)cc2C(O)c2ccc3ccccc3c2)=N1` (stereo not drawn), the GI50 (HCT-15 colon) is reported as > 100 µM, the TGI (HCT-15 colon) is reported as > 100 µM and the GI50 (HL-60(TB) leukemia) is reported as > 10 µM. For the same compound, the TGI (HL-60(TB) leukemia) was > 100 µM, the GI50 (KM12 colon) was > 100 µM and the TGI (KM12 colon) was > 100 µM. The GI50 (LOX IMVI melanoma) was > 100 µM, the TGI (LOX IMVI melanoma) was > 100 µM and the GI50 (MALME-3M melanoma) was > 100 µM. For the same compound, the TGI (MALME-3M melanoma) was > 100 µM, the GI50 (NCI-H226 lung) was > 10 µM and the TGI (NCI-H226 lung) was > 100 µM. For the same compound, the TGI (NCI-H522 lung) was > 10 µM, the TGI (RPMI-8226 leukemia) was > 100 µM and the GI50 (SNB-19 CNS) was > 10 µM. The TGI (SNB-19 CNS) was > 100 µM, the GI50 (TK-10 renal) was > 100 µM and the TGI (TK-10 renal) was > 100 µM.

With `O=c1cc(-c2cccc(O)c2)[nH]c2cc3c(cc12)OCO3` the TGI (HCT-15 colon) was > 100 µM, the TGI (HL-60(TB) leukemia) was > 19.9 µM and the TGI (KM12 colon) was > 100 µM. For the same compound, the TGI (LOX IMVI melanoma) was > 100 µM, the TGI (MALME-3M melanoma) was > 100 µM and the TGI (NCI-H226 lung) was 23.8 µM. For the same compound, the TGI (NCI-H522 lung) was 0.951 µM, the TGI (RPMI-8226 leukemia) was > 100 µM and the TGI (SNB-19 CNS) was > 49.6 µM. The TGI (TK-10 renal) was > 100 µM.
